# Data published in patent US8834579B2, “Dye composition for hair dyeing and method for producing the same” (Hodogaya Chemical Co., Ltd., priority 2012, dated 2014).
# Where two headings read alike, the source gives them in different places.
# Columns and labels:
# [1] = test system: Salmonella typhimurium TA98 strain; details: TA98 (TA1537 strain and/or TA98 strain); SCCP Opinion on Basic Brown 16, 2008; cited from earlier work
# [2] = test system: Salmonella typhimurium TA1537 strain; details: TA1537 (TA1537 strain and/or TA98 strain); SCCP Opinion on Basic Brown 16, 2008; cited from earlier work
# [3] = strain not stated; SCCP Opinion on Basic Brown 16, 2008; cited from earlier work
# [4] = test system: Salmonella typhimurium TA98 strain; assay: Ames test (reverse mutation test), TA98 strain; format: cell-based
# From the text: (§1) The Ames test is a test system for detecting a phenomenon that a histidine-requiring strain, which cannot grow without a specific amino acid (for example, histidine), is returned to a histidine-nonrequiring strain by a gene mutation due to a mutational substance. The Ames test is also called a reverse mutation test because a strain regains its original nature by a gene mutation. In the case of a metabolic activation test, a test substance, a test strain, and an enzyme for activating metabolism of drugs (S-9Mix) are mixed, and the mixture is cultured for 48 hours at 37° C. using an agar medium after preincubation for 20 minutes at 37° C. The number of induced revertant colonies is counted, and it is determined to be positive in the case where the ratio (MR value) of the number of the induced revertant colonies to the number of revertant colonies appearing in a negative control is 2 or more (refer to, for example, “Bacterial Reverse Mutation Test.” OECD GUIDELINE FOR TESTING OF CHEMICALS, no. 471, Adopted: 21, Jul. 1997).
# (§2) The metabolic activation test is a test carried out by adding an enzyme for activating metabolism of drugs (that is, S-9Mix) which is obtained from a liver of a rat or the like in order to bring a metabolic system of drugs for microbes close to that of mammals.
# (§3) With respect to Basic Brown 16 before and after purification, the Ames test was carried out using Salmonella typhimurium TA98 strain and Salmonella typhimurium TA1537 strain with and without an enzyme for activating metabolism of drugs (S-9Mix) in each strain.
# (§4) The Ames test was carried out on the same condition also with respect to the component indicating positive in the Ames test and represented by the structural formula (III) among impurities contained in Basic Brown 16.
# [5] = test system: Salmonella typhimurium TA1537 strain; assay: Ames test (reverse mutation test), TA1537 strain; format: cell-based
# From the text: as §1, §2, §3, §4
SMILES,Ames test result [1],Ames test result [2],Ames test result [3],Ames test result ([4]; TA98),"MR value (ratio of induced revertant colonies to negative control) ([4]; TA98, +S9 (with S-9Mix))","MR value (ratio of induced revertant colonies to negative control) ([4]; TA98, −S9 (without S-9Mix))",Ames test result ([5]; TA1537),"MR value (ratio of induced revertant colonies to negative control) ([5]; TA1537, +S9 (with S-9Mix))","MR value (ratio of induced revertant colonies to negative control) ([5]; TA1537, −S9 (without S-9Mix))"
C[N+](C)(C)c1ccc2ccc(O)c(N=Nc3ccc(N)cc3)c2c1.[Cl-] [Basic Brown 16],positive,positive,positive,–,–,–,–,–,–
CN(C)c1ccc2ccc(O)c(N=Nc3ccc(N)cc3)c2c1 [Component of structural formula (III)],–,–,–,positive (it is determined to be positive in the case where the ratio (MR value) of the number of the induced revertant colonies to the number of revertant colonies appearing in a negative control is 2 or more),53.0,0.9,positive (it is determined to be positive in the case where the ratio (MR value) of the number of the induced revertant colonies to the number of revertant colonies appearing in a negative control is 2 or more),10.5,1.2
